The values below come from US20010048946A1, “SOLID PHARMACEUTICAL DOSAGE FORMS IN FORM OF A PARTICULATE DISPERSION” (priority 1997, published 2001).

The structures appear in SMILES notation.

The nature of data set [1]: Dissolution testing, USP apparatus II, 900 mL medium, 37° C., 75 rpm. Format: physicochemical. To be noted: 100 mg CI-991. Here is the method: (0.1 M) Phosphate solution was prepared by dissolving a calculated amount of Na2HPO4 in USP water. The pH-value of the (0.1 M) phosphate solution was then adjusted to 8.0±0.02 by 85% phosphoric acid to give a pH 8 (0.1 M) phosphate buffer. An appropriate amount of SLS was added and dissolved in the pH 8 (0.1 M) phosphate buffer to give the pH 8 (0.1 M) phosphate buffer containing 0.5% (g/mL) SLS.
(0.05 M) Phosphate solution was prepared by mixing 1:1 ratio of the aqueous solutions of (0.025 M) Na2HPO4 and (0.025 M) K2HPO4. The pH value of the (0.05 M) phosphate solution was then adjusted to 9.0±0.02 by 85% phosphoric acid to give the pH 9 (0.05 M) phosphate buffer.
The dissolution studies were conducted in 900 mL of dissolution medium maintained at 37° C., using USP apparatus II (Distek 2100A dissolution system, North Brunswick, N.J.) at 75 rpm of paddle speed. After dispersing a sample containing 100 mg of CI-991 into the dissolution medium, about 10 mL of solutions were periodically sampled and filtered by Gelman Nylon Acrodisc 0.45 μm filters to give clear filtrates (discard the first 2 mL filtrate). The extent of the drug dissolved in the dissolution medium was determined by UV spectrometry at λ=284 nm. Interference by the excipients was not observed during analysis. Experiments were run in duplicate, and the results were averaged.

For data set [2] the following is noted: gastrointestinal pH range of 1.0 to 7.5; cited from earlier work.
Setting [3] is: pH 8 (0.1 M) phosphate buffer containing 0.5% SLS.

Turning to `Cc1c(C)c2c(c(C)c1O)CCC(C)(COc1ccc(CC3SC(=O)NC3=O)cc1)O2` (stereo not shown) [CI-991 Pure Drug, Troglitazone], in data set [1] (setting [3]), the “Percent of CI-991 Dissolved in Solution at 5 min” value is on record as 3.9 ± 0.1%, the “Percent of CI-991 Dissolved in Solution at 10 min” value is 6.3 ± 0.1% and the “Percent of CI-991 Dissolved in Solution at 15 min” value is 8.2 ± 0.1%. In data set [1] (pH 9 (0.05 M) phosphate buffer), the “Percent of CI-991 Dissolved in Solution at 5 min” value is reported as 0.5 ± 0.1%, the “Percent of CI-991 Dissolved in Solution at 10 min” value is 0.4 ± 0.1% and the “Percent of CI-991 Dissolved in Solution at 15 min” value turned out to be 1.2 ± 0.2%. Besides, the “water solubility (in words)” value in data set [2] is “practically water-insoluble”.
